{"source": "patent US5942495A", "about": "“Antibiotics” (BTG International Limited, priority 1997, dated 1999)", "key": {"[1]": {"system": "Candida albicans ATCC 262778", "assay": "In vitro antifungal activity (growth inhibition, turbidimetric, liquid Sabouraud medium)", "assay_type": "cell-based", "conditions": "for IC50 (concentration inhibiting growth of fungi by 50%): 24 hours at 30° C., liquid Sabouraud medium", "procedure": "The antifungal activity of compounds was determined following the standard for polyene macrolide procedure. The liquid Sabouraud medium was inoculated with 10^4 cells/ml of test organism Candida albicans ATCC 262778 and incubated for 24 hours at 30° C. with the tested antibiotic (serial dilutions). Amphotericin B was used as the reference. Compounds were dissolved in DMF and suitable amounts of the solutions were added to the medium. Turbidimetric method (660 nm) was applied to determine the degree of growth inhibition. The concentration of antibiotic at which the growth of fungi was inhibited by 50% was determined from the dose response curve. The obtained IC50 value characterized antifungal activity of the compound."}, "Solubility": {"assay": "Solubility", "assay_type": "physicochemical"}, "[2]": {"assay": "In vitro toxicity (haemolysis of human erythrocytes)", "assay_type": "cell-based", "conditions": "human, erythrocytes, 30 minutes at 37° C., read-out: EH50 (concentration at which 50% of hemolysis occurred)", "procedure": "(§1) Toxicity of compounds in vitro against animal cells was determined using standard for polyene macrolides procedure, by the determination of the degree of haemolysis of human erythrocytes. Human erythrocytes isolated from fresh, citrated human blood were washed twice with cold saline. The cells were diluted 250 times with saline and equilibrated for 30 minutes at 37° C. Samples of erythrocytes were incubated with various concentrations of antibiotics (the base solution in DMF) for 30 minutes at 37° C. After centrifugation the lysis of erythrocytes was assessed by determination of the haemoglobin released to the solution. Optical density of the supernatant was measured at […]. The results were expressed by EH50 value, as concentration of antibiotic at which 50% of hemolysis occurred. The values of EH50 were read from a curve relating the degree of hemolysis with antibiotic dose."}, "human erythrocytes": {"system": "human erythrocytes", "assay": "In vitro toxicity (haemolysis of human erythrocytes)", "assay_type": "cell-based", "conditions": "30 minutes at 37° C.", "procedure": "as §1"}, "Candida albicans": {"system": "Candida albicans", "assay": "Chemotherapeutic efficacy, systemic murine candidose model", "assay_type": "in vivo", "conditions": "840 h, intravenous, twice a day, 5 days, female Swiss Webster mice", "quoted_text": "Candida albicans was grown overnight in Sabouraud dextrose broth at room temperature. The fungal cells were centrifuged, washed twice with 0.9% solution of sodium chloride, and suspended in physiological salt solution. Female Swiss Webster mice of 25 g weight, were injected intravenously with 10^5 cells of Candida in 0.2 ml of 0.9% sodium chloride solution. Initially, the infection was systemic, but by 2 to 3 days it was localized to the kidneys. Untreated animals usually died between 7 to 14 days post-infection. Three days post-infection, animals were treated intravenously, twice a day, for 5 consecutive days with a 5 to 6 hours interval. Preparation was administered as a solution in 5% glucose. […] After this time, the surviving animals were sacrificed, their kidneys were removed, homogenized in sterile water, and the homogenate was placed on Sabouraud dextrose agar, and the grown colonies of Candida were counted. […] The dose, called ED50, was calculated using a method given in J.Hyg."}, "Acute toxicity (LD50)": {"assay": "Acute toxicity (LD50)", "conditions": "mouse, in vivo, iv", "quoted_text": "(§3) Various doses of the tested compound, and for comparison, amphotericin B in form of Fungizone, dissolved in 5% glucose were given intravenously to the animals. The administered volume of the solution was 0.5 ml. 0.5 ml of 5% solution of glucose was administered to mice as a control. Every dose of both preparations was administered to 5 mice. […] Next, the animals were killed, and some serum indexes were determined."}, "[3]": {"system": "Swiss Webster female mice", "assay": "Serum indexes after acute toxicity study", "assay_type": "in vivo", "conditions": "in comparison with the control (5% glucose), after 7 days", "quoted_text": "as §3"}, "[4]": {"assay": "In vivo toxicity, maximum tolerated dose (MTD)", "conditions": "mouse, in vivo, Balb/c mice", "procedure": "(§2) In vivo toxicity was determined for methyl ester of N-methyl-N-D-fructosylamphotericin B L-aspartate as the maximum tolerated dose (MTD), and as the acute toxicity (LD50). To determine MTD dose the compound was dissolved in 5% solution of glucose, and administered intravenously and intraperitonealy to Balb/c mice in single and multiple doses."}, "Balb/c mice": {"system": "Balb/c mice", "assay": "In vivo toxicity, maximum tolerated dose (MTD)", "conditions": "intraperitoneal 100 mg/kg for 5 days, 20 days of observation", "procedure": "as §2"}}, "note": "Read-outs that look alike come from different tables or passages of the source."}
{"compound": "COC(=O)[C@H]1[C@@H]2C[C@@H](O[C@@H]3O[C@H](C)[C@@H](O)[C@H](N(C)CC4(O)OC[C@@H](O)[C@@H](O)[C@@H]4O)[C@@H]3O)/C=C/C=C/C=C/C=C/C=C/C=C/C=C/[C@H](C)[C@@H](O)[C@@H](C)[C@H](C)OC(=O)C[C@H](O)C[C@H](O)CC[C@@H](O)[C@H](O)C[C@H](O)C[C@](O)(C[C@@H]1O)O2", "note": "(single isomer, unassigned) [Example I, N-methyl-N-D-fructosylamphotericin B methyl ester]", "values": [{"measurement": "IC50 (concentration inhibiting growth of fungi by 50%)", "setting": "[1]", "value": 0.12, "unit": "µg/mL"}, {"measurement": "solubility", "setting": "Solubility; under conditions of the haemolysis experiment, read-out: solubility limit (insoluble above)", "value": "≤ 350", "unit": "µg/mL"}, {"measurement": "HC50 at 0.5 h", "setting": "[2]", "value": "> 350", "unit": "µg/mL"}]}
{"compound": "COC(=O)[C@H]1[C@@H]2C[C@@H](O[C@@H]3O[C@H](C)[C@@H](O)[C@H](N(C)CC4(O)OC[C@@H](O)[C@@H](O)[C@@H]4O)[C@@H]3O)/C=C/C=C/C=C/C=C/C=C/C=C/C=C/[C@H](C)[C@@H](O)[C@@H](C)[C@H](C)OC(=O)C[C@H](O)C[C@H](O)CC[C@@H](O)[C@H](O)C[C@H](O)C[C@](O)(C[C@@H]1O)O2", "note": "(single isomer, unassigned) [Example VIII, N-methyl-N-D-fructosylamphotericin B methyl ester]", "values": [{"measurement": "IC50 (concentration inhibiting growth of fungi by 50%)", "setting": "[1]", "value": 0.42, "unit": "µg/mL"}, {"measurement": "EH50 (concentration at which 50% of hemolysis occurred)", "setting": "human erythrocytes; 30 min", "value": "above 200 μg/ml"}]}
{"compound": "COC(=O)[C@H]1[C@@H]2C[C@@H](O[C@@H]3O[C@H](C)[C@@H](O)[C@H](N(C)CC4(O)OC[C@@H](O)[C@@H](O)[C@@H]4O)[C@@H]3O)/C=C/C=C/C=C/C=C/C=C/C=C/C=C/[C@H](C)[C@@H](O)[C@@H](C)[C@H](C)OC(=O)C[C@H](O)C[C@H](O)CC[C@@H](O)[C@H](O)C[C@H](O)C[C@](O)(C[C@@H]1O)O2", "note": "(stereo partly drawn) [Example X, methyl ester of N-methyl-N-D-fructosylamphotericin B L-aspartate]", "values": [{"measurement": "ED50", "setting": "Candida albicans; 5 weeks observation, read-out: ED50 based on the survival", "value": 2.3, "unit": "mg/kg"}, {"measurement": "ED50", "setting": "Candida albicans; clearance of Candida from kidneys, read-out: ED50 based on the kidneys clearance", "value": 6, "unit": "mg/kg"}, {"measurement": "IC50", "setting": "[1]; ATCC262778, 24 h, read-out: IC50 (concentration inhibiting growth of fungi by 50%)", "value": 0.125, "unit": "µg/mL"}, {"measurement": "LD50 at 168 h", "setting": "Acute toxicity (LD50)", "value": 400, "unit": "mg/kg"}, {"measurement": "solubility in N,N-dimethylformamide, dimethylsulphoxide and 5% water solution of glucose", "setting": "Solubility; DMF, DMSO, 5% aqueous glucose", "value": "soluble"}, {"measurement": "solubility in water", "setting": "Solubility; water", "value": "very well soluble in water"}, {"measurement": "level of aspartate aminotransferase", "setting": "[3]", "value": "No increased level"}, {"measurement": "level of creatinine", "setting": "[3]", "value": "No increased level"}, {"measurement": "MTD", "setting": "[4]; ip, intraperitoneal, for 5 days, read-out: maximum multiple tolerated dose", "value": "> 100", "unit": "mg/kg"}, {"measurement": "MTD", "setting": "[4]; ip, intraperitoneal, single dose, in 5% glucose, read-out: maximum single tolerated dose (MTD)", "value": "> 200", "unit": "mg/kg"}, {"measurement": "MTD", "setting": "[4]; iv, single dose, in 5% glucose, read-out: maximum single tolerated dose (MTD)", "value": 100, "unit": "mg/kg"}, {"measurement": "toxic effects", "setting": "Balb/c mice", "value": "toxic effects were not observed"}, {"measurement": "EH50 (concentration at which 50% of hemolysis occurred)", "setting": "human erythrocytes; 30 min", "value": "above 350 μg/ml"}]}
{"compound": "C[C@@H]1[C@H](O)[C@@H](C)/C=C/C=C/C=C/C=C/C=C/C=C/C=C/[C@H](O[C@@H]2O[C@H](C)[C@@H](O)[C@H](N)[C@@H]2O)C[C@@H]2O[C@](O)(C[C@@H](O)C[C@@H](O)[C@H](O)CC[C@@H](O)C[C@@H](O)CC(=O)O[C@H]1C)C[C@H](O)[C@H]2C(=O)O", "note": "[amphotericin B, reference compound]", "values": [{"measurement": "HC50 at 0.5 h", "setting": "[2]", "value": 1.5, "unit": "µg/mL"}]}
{"compound": "N-methyl-N-D-fructosylamphotericin B methyl ester [Example IX]", "values": [{"measurement": "IC50 (concentration inhibiting growth of fungi by 50%)", "setting": "[1]", "value": 6.0, "unit": "µg/mL"}]}
{"compound": "N-methyl-N-D-fructosylamphotericin B methyl ester [Example VII]", "values": [{"measurement": "IC50 (concentration inhibiting growth of fungi by 50%)", "setting": "[1]", "value": 0.42, "unit": "µg/mL"}]}
{"compound": "N-methyl-N-D-fructosylcandidin D methyl ester [Example V]", "values": [{"measurement": "IC50 (concentration inhibiting growth of fungi by 50%)", "setting": "[1]", "value": 0.01, "unit": "µg/mL"}, {"measurement": "EH50 (concentration at which 50% of hemolysis occurred)", "setting": "human erythrocytes", "value": "≈ 180 μg/ml"}]}
{"compound": "N-methyl-N-D-fructosylcandidin methyl ester [Example II]", "values": [{"measurement": "IC50 (concentration inhibiting growth of fungi by 50%)", "setting": "[1]", "value": 0.75, "unit": "µg/mL"}, {"measurement": "EH50 (concentration at which 50% of hemolysis occurred)", "setting": "human erythrocytes", "value": "above 300 μg/ml"}]}
{"compound": "N-methyl-N-D-fructosylnystatin methyl ester [Example III]", "values": [{"measurement": "IC50 (concentration inhibiting growth of fungi by 50%)", "setting": "[1]", "value": 6.8, "unit": "µg/mL"}, {"measurement": "EH50 (concentration at which 50% of hemolysis occurred)", "setting": "human erythrocytes", "value": "above 300 μg/ml"}]}
{"compound": "N-methyl-N-D-fructosylvacidin methyl ester [Example IV]", "values": [{"measurement": "IC50 (concentration inhibiting growth of fungi by 50%)", "setting": "[1]", "value": 0.01, "unit": "µg/mL"}, {"measurement": "EH50 (concentration at which 50% of hemolysis occurred)", "setting": "human erythrocytes", "value": 170, "unit": "µg/mL"}]}
{"compound": "N-methyl-N-fructosyltrychomycin methyl ester [Example VI]", "values": [{"measurement": "IC50 (concentration inhibiting growth of fungi by 50%)", "setting": "[1]", "value": 0.013, "unit": "µg/mL"}, {"measurement": "EH50 (concentration at which 50% of hemolysis occurred)", "setting": "human erythrocytes", "value": "≈ 165 μg/ml"}]}
